Measured values reported in US20260184693A1, “INHIBITORS OF SOLUTE CARRIER FAMILY 6A MEMBER 19 (SLC6A19) AND METHODS OF USE THEREOF” (Maze Therapeutics, Inc., priority 2022, published 2026).

Target: T1, human SLC6A19 (Homo sapiens, UniProt Q695T7)
T1 construct: expressed in transfected cells
T1 sequence (Q695T7 1-634): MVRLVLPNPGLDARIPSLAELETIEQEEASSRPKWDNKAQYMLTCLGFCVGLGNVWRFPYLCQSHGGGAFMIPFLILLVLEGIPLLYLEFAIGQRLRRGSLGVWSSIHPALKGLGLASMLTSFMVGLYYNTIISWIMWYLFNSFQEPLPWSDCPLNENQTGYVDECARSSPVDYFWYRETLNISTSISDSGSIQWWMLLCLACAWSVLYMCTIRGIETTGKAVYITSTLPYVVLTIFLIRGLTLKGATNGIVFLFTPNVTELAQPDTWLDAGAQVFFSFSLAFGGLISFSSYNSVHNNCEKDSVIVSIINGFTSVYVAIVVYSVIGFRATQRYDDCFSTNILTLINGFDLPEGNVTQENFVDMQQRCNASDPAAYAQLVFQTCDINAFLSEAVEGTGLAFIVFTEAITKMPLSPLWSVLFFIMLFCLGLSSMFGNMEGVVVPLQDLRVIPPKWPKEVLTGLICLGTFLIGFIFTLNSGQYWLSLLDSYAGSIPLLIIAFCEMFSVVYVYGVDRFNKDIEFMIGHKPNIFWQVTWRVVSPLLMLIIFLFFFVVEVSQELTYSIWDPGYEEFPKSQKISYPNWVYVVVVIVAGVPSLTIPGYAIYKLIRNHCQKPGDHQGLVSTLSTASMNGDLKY
T1 sequence (Q9HBJ8 15-222 partner): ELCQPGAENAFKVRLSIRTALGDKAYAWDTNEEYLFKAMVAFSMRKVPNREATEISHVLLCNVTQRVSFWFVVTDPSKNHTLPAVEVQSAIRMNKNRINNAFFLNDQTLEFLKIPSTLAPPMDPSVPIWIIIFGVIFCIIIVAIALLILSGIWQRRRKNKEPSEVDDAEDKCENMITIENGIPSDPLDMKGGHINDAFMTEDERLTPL
Experiment: Example B2: 13C6,15N-isoleucine uptake, RapidFire mass spectrometry, in CHO cells with doxycycline-inducible expression of human SLC6A19 and TMEM27
Format: cell-based
Conditions: read-out: SLC6A19_RapidFire Uptake Assay IC50
Procedure, shortened: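 Labelled isoleucine (13C6,15N; 2 mM added) was given 20 min at 37 °C, following a 20-min compound pre-treatment (10-point 2-fold series, duplicate). Cells were doxycycline-induced CHO co-expressing human SLC6A19 and TMEM27. Intracellular label was quantified by RapidFire-MS peak areas against a 13C-leucine standard.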

| Structure (SMILES) | IC50 [µM] |
| --- | --- |
| CC(C(=O)N1CCC[C@@H](N(C)C(=O)NCc2cc3cc(Cl)ccc3[nH]2)C1)C1(O)CCC1 (stereo partly drawn) [Compound 105, 3-((5-chloro-1H-indol-2-yl)methyl)-1-((3R)-1-(2-(1-hydroxycyclobutyl)propanoyl)piperidin-3-yl)-1-methylurea] | > 27 |
| CN(C(=O)NCc1cc2cc(Cl)ccc2[nH]1)[C@@H]1CCCN(C(=O)CC2CCCCO2)C1 (stereo partly drawn) [Compound 106, 3-((5-chloro-1H-indol-2-yl)methyl)-1-methyl-1-((3R)-1-(2-(tetrahydro-2H-pyran-2-yl)acetyl)piperidin-3-yl)urea] | 1.77 |
| CN(C(=O)NCc1cc2cc(Cl)ccc2[nH]1)[C@@H]1CCCN(C(=O)C2CC(F)C2)C1 (stereo partly drawn) [Compound 124, (R)-3-((5-chloro-1H-indol-2-yl)methyl)-1-(1-(3-fluorocyclobutane-1-carbonyl)piperidin-3-yl)-1-methylurea] | 0.256 |
| CN(C(=O)NCc1cc2cc(Cl)ccc2[nH]1)[C@@H]1CCCN(C(=O)C2CCC2F)C1 (stereo partly drawn) [Compound 125, 3-((5-chloro-1H-indol-2-yl)methyl)-1-((3R)-1-(2-fluorocyclobutane-1-carbonyl)piperidin-3-yl)-1-methylurea] | 0.259 |
| CN(C(=O)NCc1cc2cc(Cl)ccc2[nH]1)[C@@H]1CCCN(C(=O)C2(C)COC2)C1 [Compound 126, (R)-3-((5-chloro-1H-indol-2-yl)methyl)-1-methyl-1-(1-(3-methyloxetane-3-carbonyl)piperidin-3-yl)urea] | 1.44 |
| CN(C(=O)NCc1cc2cc(Cl)ccc2[nH]1)[C@@H]1CCCN(C(=O)C2(O)CCC2)C1 [Compound 128, (R)-3-((5-chloro-1H-indol-2-yl)methyl)-1-(1-(1-hydroxycyclobutane-1-carbonyl)piperidin-3-yl)-1-methylurea] | 1.82 |
| CN1CC(C(=O)N2CCC[C@@H](N(C)C(=O)NCc3cc4cc(Cl)ccc4[nH]3)C2)C1 [Compound 129, (R)-3-((5-chloro-1H-indol-2-yl)methyl)-1-methyl-1-(1-(1-methylazetidine-3-carbonyl)piperidin-3-yl)urea] | > 31.8 |
| CN(C(=O)NCc1cc2cc(Cl)ccc2[nH]1)[C@@H]1CCCN(C(=O)C2CNC2)C1 [Compound 130, (R)-1-(1-(azetidine-3-carbonyl)piperidin-3-yl)-3-((5-chloro-1H-indol-2-yl)methyl)-1-methylurea] | 12.1 |
| CC(=O)N1CCC[C@@H](N(C)C(=O)NCc2cc3ccc(OCc4cncs4)cc3[nH]2)C1 [Compound 136, (R)-1-(1-acetylpiperidin-3-yl)-1-methyl-3-((6-(thiazol-5-ylmethoxy)-1H-indol-2-yl)methyl)urea] | 3.95 |
| CCN(C(=O)NCc1cc2ccc(OCc3ccon3)cc2[nH]1)[C@@H]1CCCN(C(C)=O)C1 [Compound 139, (R)-1-(1-acetylpiperidin-3-yl)-1-ethyl-3-((6-(isoxazol-3-ylmethoxy)-1H-indol-2-yl)methyl)urea] | 0.517 |
| CC(=O)N1CCC[C@@H](N(C)C(=O)NCc2cc3cc(Cl)c(OCc4cncs4)cc3[nH]2)C1 [Compound 140, (R)-1-(1-acetylpiperidin-3-yl)-3-((5-chloro-6-(thiazol-5-ylmethoxy)-1H-indol-2-yl)methyl)-1-methylurea] | 1.24 |
| CC(=O)N1CCC[C@@H](N(C)C(=O)NCc2cc3ccc(OCc4cc(C)on4)cc3[nH]2)C1 [Compound 143, (R)-1-(1-acetylpiperidin-3-yl)-1-methyl-3-((6-((5-methylisoxazol-3-yl)methoxy)-1H-indol-2-yl)methyl)urea] | 1.09 |

Other lines, results leading:

| IC50 [µM] | Structure (SMILES) |
| --- | --- |
| 1.25 | COc1ccc(CC(=O)N2CCC[C@@H](N(C)C(=O)NCc3cc4cc(Cl)ccc4[nH]3)C2)cc1F [Compound 107, (R)-3-((5-chloro-1H-indol-2-yl)methyl)-1-(1-(2-(3-fluoro-4-methoxyphenyl)acetyl)piperidin-3-yl)-1-methylurea] |
| 2.28 | CN(C(=O)NCc1cc2cc(Cl)ccc2[nH]1)[C@@H]1CCCN(C(=O)[C@H]2CC[C@H](O)CC2)C1 [Compound 108] |
| 1.81 | CCNC(=O)NC(C)C(=O)N1CCC[C@@H](N(C)C(=O)NCc2cc3cc(Cl)ccc3[nH]2)C1 (stereo partly drawn) [Compound 109, 3-((5-chloro-1H-indol-2-yl)methyl)-1-((3R)-1-((ethylcarbamoyl)alanyl)piperidin-3-yl)-1-methylurea] |
| 8.56 | CN(C(=O)NCc1cc2cc(Cl)ccc2[nH]1)[C@@H]1CCCN(C(=O)C(O)CO)C1 (stereo partly drawn) [Compound 110, 3-((5-chloro-1H-indol-2-yl)methyl)-1-((3R)-1-(2,3-dihydroxypropanoyl)piperidin-3-yl)-1-methylurea] |
| 8.6 | CN(C(=O)NCc1cc2cc(Cl)ccc2[nH]1)[C@@H]1CCCN(C(=O)C2(CO)CCC2)C1 [Compound 122, (R)-3-((5-chloro-1H-indol-2-yl)methyl)-1-(1-(1-(hydroxymethyl)cyclobutane-1-carbonyl)piperidin-3-yl)-1-methylurea] |
| 0.427 | CN(C(=O)NCc1cc2cc(Cl)ccc2[nH]1)[C@@H]1CCCN(C(=O)C23CC(C2)C3)C1 [Compound 123, (R)-1-(1-(bicyclo[1.1.1]pentane-1-carbonyl)piperidin-3-yl)-3-((5-chloro-1H-indol-2-yl)methyl)-1-methylurea] |
| 0.679 | CN(C(=O)NCc1cc2cc(Cl)ccc2[nH]1)[C@@H]1CCCN(C(=O)C2(F)CCC2)C1 [Compound 127, (R)-3-((5-chloro-1H-indol-2-yl)methyl)-1-(1-(1-fluorocyclobutane-1-carbonyl)piperidin-3-yl)-1-methylurea] |
| > 45.4 | CN(C(=O)NCc1cc2cc(Cl)ccc2[nH]1)[C@@H]1CCCN(C(=O)[C@@H]2CC(=O)CN2)C1 [Compound 131, 3-((5-chloro-1H-indol-2-yl)methyl)-1-methyl-1-((R)-1-((S)-4-oxopyrrolidine-2-carbonyl)piperidin-3-yl)urea] |
| > 31 | COCC(N)C(=O)N1CCC[C@@H](N(C)C(=O)NCc2cc3cc(Cl)ccc3[nH]2)C1 (stereo partly drawn) [Compound 132, 3-((5-chloro-1H-indol-2-yl)methyl)-1-methyl-1-((3R)-1-(O-methylseryl)piperidin-3-yl)urea] |
| > 7.64 | CN(C(=O)NCc1cc2cc(Cl)ccc2[nH]1)[C@@H]1CCCN(C(=O)C2COCCN2)C1 (stereo partly drawn) [Compound 133, 3-((5-chloro-1H-indol-2-yl)methyl)-1-methyl-1-((3R)-1-(morpholine-3-carbonyl)piperidin-3-yl)urea] |
| 0.643 | CC(=O)N1CCC[C@@H](N(C)C(=O)NCc2cc3cc(Cl)c(OCc4ccon4)cc3[nH]2)C1 [Compound 138, (R)-1-(1-acetylpiperidin-3-yl)-3-((5-chloro-6-(isoxazol-3-ylmethoxy)-1H-indol-2-yl)methyl)-1-methylurea] |
| 0.67 | CC(=O)N1CCC[C@@H](N(C)C(=O)NCc2cc3ccc(OCc4ccon4)cc3[nH]2)C1 [Compound 141, (R)-1-(1-acetylpiperidin-3-yl)-3-((6-(isoxazol-3-ylmethoxy)-1H-indol-2-yl)methyl)-1-methylurea] |
| 1.31 | Cc1cc(COc2ccc3cc(CNC(=O)N(C)[C@@H]4CCCN(c5cccnn5)C4)[nH]c3c2)no1 [Compound 142, (R)-1-methyl-3-((6-((5-methylisoxazol-3-yl)methoxy)-1H-indol-2-yl)methyl)-1-(1-(pyridazin-3-yl)piperidin-3-yl)urea] |
